Measurements reported in patent US20250003968A1, “ACTIVITY-BASED CELL SORTING” (MASSACHUSETTS INSTITUTE OF TECHNOLOGY, priority 2021, published 2025).
Where no end group is shown, it is not given here. [ ]: non-standard residue; d: D form. Cy5 = Cy5 fluorophore label; code o = not defined here; QSY21 = quencher dye

Key:
[1] = biological target: T1, recombinant fibroblast activation protein (FAP) (Homo sapiens, UniProt Q12884); assay: Quenched probe cleavage by recombinant FAP (fluorescence activation); assay type: biochemical; conditions: quenched probe Q1 incorporating S1
T1 sequence (Q12884 26-760 limits assumed): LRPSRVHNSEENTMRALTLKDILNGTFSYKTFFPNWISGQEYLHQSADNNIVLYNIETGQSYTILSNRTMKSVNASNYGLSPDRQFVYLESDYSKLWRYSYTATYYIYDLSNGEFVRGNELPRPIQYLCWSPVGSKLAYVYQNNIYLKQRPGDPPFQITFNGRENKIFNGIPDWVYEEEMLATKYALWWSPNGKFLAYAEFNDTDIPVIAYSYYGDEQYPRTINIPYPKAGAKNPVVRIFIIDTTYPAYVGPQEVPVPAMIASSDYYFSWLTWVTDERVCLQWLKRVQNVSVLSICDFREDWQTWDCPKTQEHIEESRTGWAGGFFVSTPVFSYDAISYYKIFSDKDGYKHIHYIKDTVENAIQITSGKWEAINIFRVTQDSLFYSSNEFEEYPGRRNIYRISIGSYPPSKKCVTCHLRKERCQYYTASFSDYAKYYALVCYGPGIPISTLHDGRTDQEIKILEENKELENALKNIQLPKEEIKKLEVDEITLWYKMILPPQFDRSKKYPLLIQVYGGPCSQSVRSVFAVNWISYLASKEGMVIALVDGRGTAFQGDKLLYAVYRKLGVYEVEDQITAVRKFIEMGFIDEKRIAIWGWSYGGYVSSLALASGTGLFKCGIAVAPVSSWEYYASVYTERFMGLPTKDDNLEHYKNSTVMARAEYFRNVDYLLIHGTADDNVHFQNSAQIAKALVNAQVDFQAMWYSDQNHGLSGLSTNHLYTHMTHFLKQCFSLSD
Experimental: FIG. 10. Fibroblast activation protein (FAP) cleaves S1 in vitro. The quenched probe Q1, incorporating the substrate S1, was incubated with recombinant FAP, and fluorescence activation was monitored over time (n=2 replicates; mean t s.d.).

[2] = system: Eml4-Alk lungs; assay: In vivo administration of QZ1-(PEG2K), IVIS imaging of explanted lungs; parameters: species or system mouse; conditions: two hours post intravenous injection
Experimental: QZ1 (Table 4) was reconstituted to 1 mg/mL in water, then reacted with mPEG-Maleimide, MW 2000 g/mol (Laysan Bio), for PEG coupling via maleimide-thiol chemistry. After completion of the reaction, the final compound was purified using HPLC. All reactions were monitored using HPLC connected with mass spectrometry. […] Eml4-Alk mice (11-12 weeks post tumor induction) and age- and sex-matched C57BL/6J healthy controls (Jackson Labs; 18-22 weeks) were anesthetized using isoflurane inhalation (Zoetis). QZ1-(PEG2K) (4.5 nmoles in 0.9% NaCl) was administered intravenously via tail vein injection. Two hours after probe injection, mice were imaged on an in vivo imaging system (IVIS, PerkinElmer) by exciting Cy5 at 640 nm and measuring emission at 680 nm. Mice were subsequently euthanized by isoflurane overdose followed by cervical dislocation. Lungs were dissected and explanted for imaging via IVIS. Fluorescence signal intensity was quantified using the Living Image software (PerkinElmer, v4).

[3] = system: CD45-, CD11b- cells from lungs; assay: Activity-based cell sorting / flow cytometry after QZ1 administration; assay type: in vivo, mouse
Experimental: Eml4-Alk mice (10-12 weeks post tumor induction) and age- and sex-matched C57BL/6J healthy controls (Jackson Labs; 18-22 weeks) were euthanized by isoflurane overdose, and lungs were excised, separated into lobes, and kept in a round cell culture dish (ThermoFisher) on ice. For tumor-bearing lungs, tumors were separated from healthy tissue using forceps and scissors under a dissecting microscope, and the dissected tumors and surrounding tissue were kept in 5 mL Eppendorf tubes (Sigma Aldrich) for preparation into single-cell suspension. Tissue was minced using Noyes spring scissors (Fine Science Tools) until pieces were less than 1 cm in size, with the visual appearance of ground meat. […]
Single cell lung suspensions from Eml4-Alk mice administered QZ1 were stained with the following antibodies (catalog number, vendor, clone, fluorophore, dilution): CD44 (563508, BD, IM7, BV605, 1:200), CD105 (564746, BD, MJ7/18, BV786, 1:200), Ly6-A/E (12-5981-81, ThermoFisher, D7, PE, 1:200), CD11b (557657, BD, M1/70, APC-Cy7, 1:200), CD45 (566439, BD, 30-F11, AF488, 1:400), and EpCAM (118216, BioLegend™, G8.8, PE-Cy7, 1:200). […] Flow cytometry data was analyzed by the FlowJo software (Treestar). […]

[4] = system: pulmonary protease activity; assay: In vivo activity-based nanosensors, urinary reporters by LC-MS/MS; parameters: species or system mouse; conditions: within 3 days of treatment initiation; 20 mg/kg daily oral gavage
Experimental: The urinary reporter glutamate-fibrinopeptide B (Glu-Fib) was mass barcoded for detection by mass spectrometry. Nanosensors were dosed (50 μL total volume, 20 μM each nanosensor) in mannitol buffer (0.28 M mannitol, 5 mM sodium phosphate monobasic, 15 mM sodium phosphate dibasic, pH 7.0-7.5) by intratracheal intubation. Anesthesia was induced by isoflurane inhalation, and mice were monitored during recovery. For intratracheal instillation, a volume of 50 μL was administered by passive inhalation following intratracheal intubation with a 22G flexible plastic catheter (Exel). […]
LC-MS/MS was performed by Syneos Health using a Sciex™ 6500 triple quadrupole instrument. […] Samples were extracted by solid-phase extraction and analyzed by multiple reaction monitoring by LC-MSMS to quantify concentration of each Glu-Fib mass variant. Analyte quantities were normalized to a spiked-in internal standard and concentrations were calculated from a standard curve using peak area ratio (PAR) to the internal standard. […]
Analyses of urinary reporter data were conducted using the analytic pipelines of the protease activity analysis (PAA) package [52], a publicly available Python package designed to process and visualize enzymatic activity datasets. […] Ten independent train-test trials were run for each classification problem, and classification performance was evaluated with ROC statistics. […]

GGPQGIWGQC [S1]
cleavage by FAP in vitro [1]: cleaves

(QSY21)-eeeeeeeee-c(PEG2K)-oGGPQGIWGQG-rrrrrrrrr-k(Cy5) (QSY21-[dE][dE][dE][dE][dE][dE][dE][dE][dE][dC](PEG2K)[code o]GGPQGIWGQG[dR][dR][dR][dR][dR][dR][dR][dR][dR][dK](Cy5); reading uncertain; also: X11: 5-amino-3-oxopentanoyl, other spacer, or absent, printed as (QSY21)-eeeeeeeee-c(PEG2K)-oGGPQGIWGQG-rrrrrrrrr-k(Cy5)) [QZ1, PEGylated quenched probe]
Cy5 fluorescence in explanted Eml4-Alk lungs relative to healthy lungs [2]: significantly increased | QZ1 staining in cells positive for mesenchymal cell markers ([3]; Eml4-Alk lungs, CD44, CD105, Ly-6A/E): increased QZ1 staining | QZ1 staining in cells positive for mesenchymal cell markers ([3]; healthy lungs, separate experiment): more variable pattern

CCc1cc2c(cc1N1CCC(N3CCOCC3)CC1)C(C)(C)c1[nH]c3cc(C#N)ccc3c1C2=O [alectinib]
reporters exhibiting differential enrichment in the urine of vehicle- versus alectinib-treated mice [4]: 12 of 14
